Experimental data from ChEMBL document CHEMBL1138055, “Tetraoxane antimalarials and their reaction with Fe(II)” (J Med Chem, 2006).

Legend:
Plasmodium falciparum [1] = test system: Plasmodium falciparum
Description: (§1) Antimalarial activity against Plasmodium falciparum TM91C235

Plasmodium falciparum [2] = test system: Plasmodium falciparum; remark: listed apart in the source
Description: (§2) Antimalarial activity against Plasmodium falciparum D6

Plasmodium falciparum [3] = experiment: microbe, parasite or virus in culture; conditions: W2
Description: (§3) Antimalarial activity against Plasmodium falciparum W2

Plasmodium falciparum [4] = test system: Plasmodium falciparum; remark: listed apart in the source
Description: as §3

Mus musculus [5] = experiment: Effect on survival of CD1 mice (Mus musculus) infected with Plasmodium berghei KBG173 at 600 mg/kg/day, perorally; format: functional, organism-based; parameters: route oral; conditions: route oral
SR = experiment: Antiproliferative activity against human SR cell line after 48 hrs; format: functional
Mus musculus [6] = experiment: Effect on survival of CD1 mice (Mus musculus) infected with Plasmodium berghei KBG173 at 50 mg/kg/day, perorally; format: functional; conditions: route oral
Mus musculus [7] = experiment: Effect on survival of CD1 mice (Mus musculus) infected with Plasmodium berghei KBG173 at 200 mg/kg/day, perorally; format: functional; conditions: route oral
Plasmodium falciparum [8] = experiment: microbe, parasite or virus in culture; conditions: TM91C235
Description: as §1

COLO 205 = experiment: Antiproliferative activity against human COLO 205 cell line after 48 hrs; format: functional; conditions: Homo sapiens, COLO 205, 48 h
HOP-62 = experiment: Antiproliferative activity against human HOP62 cell line after 48 hrs; format: functional; conditions: Homo sapiens, HOP-62, 48 h
EKVX = experiment: Antiproliferative activity against human EKVX cell line after 48 hrs; format: functional; conditions: Homo sapiens, EKVX, 48 h
IGROV-1 = experiment: Antiproliferative activity against human IGROV1 cell line after 48 hrs; format: functional; conditions: Homo sapiens, IGROV-1, 48 h; for CC50: read-out: LC50 (the source's name)
UO-31 = experiment: Antiproliferative activity against human UO31 cell line after 48 hrs; format: functional; conditions: Homo sapiens, UO-31, 48 h; for CC50: read-out: LC50 (the source's name)
Plasmodium falciparum [9] = experiment: microbe, parasite or virus in culture; conditions: D6
Description: as §2

LOX IMVI = experiment: Antiproliferative activity against human LOX IMVI cell line after 48 hrs; format: functional
[10] = read-out: LC50 (the source's name)

## CCCNC(=O)CC[C@@H](C)[C@H]1CC[C@H]2[C@@H]3[C@H](OC(C)=O)C[C@@H]4CC5(CC[C@]4(C)[C@H]3C[C@H](OC(C)=O)[C@]12C)OOC1(CCC(C(=O)NCCC)CC1)OO5 (stereo in doubt; 10)
Plasmodium falciparum [1]
  IC50: 52.3 nM
  IC90: 127 nM
Plasmodium falciparum [2]
  IC50: 38.5 nM
  IC90: 56 nM
Plasmodium falciparum [3]
  IC90: 78 nM
Plasmodium falciparum [4]
  IC50: 58.3 nM

## CC(=O)O[C@H]1C[C@H]2[C@@H]([C@H](OC(C)=O)C[C@@H]3CC4(CC[C@@]32C)OOC2(CCC(C(=O)Nc3ccccc3)CC2)OO4)[C@@H]2CC[C@H]([C@H](C)CCC(=O)Nc3ccccc3)[C@@]12C (stereo in doubt; 14)
Plasmodium falciparum [1]
  IC50: 42.8 nM
  IC90: 86.6 nM
Plasmodium falciparum [2]
  IC50: 29.6 nM
  IC90: 44.5 nM
Plasmodium falciparum [4]
  IC50: 52.9 nM
  IC90: 74.2 nM

## CC(=O)O[C@H]1C[C@H]2[C@@H]([C@H](OC(C)=O)C[C@@H]3CC4(CC[C@@]32C)OOC2(CCC(C(N)=O)CC2)OO4)[C@@H]2CC[C@H]([C@H](C)CCC(N)=O)[C@@]12C (stereo in doubt; 8)
Plasmodium falciparum [1]
  IC50: 168 nM
  IC90: 249 nM
Plasmodium falciparum [2]
  IC50: 119 nM
  IC90: 196 nM
Plasmodium falciparum [4]
  IC50: 121 nM
  IC90: 265 nM

## CC(=O)O[C@H]1C[C@H]2[C@@H]([C@H](OC(C)=O)C[C@@H]3CC4(CC[C@@]32C)OOC2(CCC(C)CC2)OO4)[C@@H]2CC[C@H]([C@H](C)CCC(=O)O)[C@@]12C (stereo in doubt; 16)
Mus musculus [5]
  Activity: 29 days
Plasmodium falciparum [2]
  IC50: 1.53 nM
SR
  GI50: 1630 nM
  TGI: 3820 nM
SR; [10]
  CC50: 8920 nM
Mus musculus [6]
  Activity: 12.2 days
Mus musculus [7]
  Activity: 24.8 days
Plasmodium falciparum [4]
  IC50: 0.98 nM

## CC(=O)O[C@H]1C[C@H]2[C@@H]([C@H](OC(C)=O)C[C@@H]3CC4(CC[C@@]32C)OOC2(CCC(C(=O)O)CC2)OO4)[C@@H]2CC[C@H]([C@H](C)CCC(=O)O)[C@@]12C (stereo in doubt; 6b)
Plasmodium falciparum [1]
  IC50: > 300 nM
Plasmodium falciparum [8]
  IC90: > 300 nM
Plasmodium falciparum [2]
  IC50: > 300 nM
  IC90: > 300 nM
Plasmodium falciparum [3]
  IC90: > 300 nM
Plasmodium falciparum [4]
  IC50: > 300 nM

## CC(=O)O[C@H]1C[C@H]2[C@@H]([C@H](OC(C)=O)C[C@@H]3CC4(CC[C@@]32C)OOC2(CCC(C)CC2)OO4)[C@@H]2CC[C@H]([C@H](C)CCC(=O)O)[C@@]12C (stereo in doubt; 18)
COLO 205
  GI50: 1980 nM
  TGI: 4400 nM
COLO 205; [10]
  CC50: 9780 nM
HOP-62
  GI50: 1640 nM
  TGI: 3490 nM
HOP-62; [10]
  CC50: 7400 nM
EKVX
  GI50: 1450 nM
  LC50: 5780 nM
  TGI: 2900 nM
IGROV-1
  GI50: 1400 nM
  TGI: 2760 nM
  CC50: 5430 nM
Mus musculus [5]
  Activity: 20 days
UO-31
  GI50: 1500 nM
  TGI: 3000 nM
  CC50: 6020 nM
Plasmodium falciparum [2]
  IC50: 31.1 nM
Mus musculus [6]
  Activity: 10.2 days
Mus musculus [7]
  Activity: 22.6 days
Plasmodium falciparum [4]
  IC50: 17.7 nM

## C[C@@H]1CC[C@H]2[C@@H](C)C(=O)O[C@@H]3O[C@@]4(C)CC[C@@H]1[C@]32OO4 [ARTEMISININ]
Plasmodium falciparum [8]
  IC50: 13 nM
  IC90: 17.4 nM
Plasmodium falciparum [9]
  IC50: 9 nM
  IC90: 12.8 nM
Plasmodium falciparum [3]
  IC50: 6.7 nM
  IC90: 11.5 nM

## CCCOC(=O)CC[C@@H](C)[C@H]1CC[C@H]2[C@@H]3[C@H](OC(C)=O)C[C@@H]4CC5(CC[C@]4(C)[C@H]3C[C@H](OC(C)=O)[C@]12C)OOC1(CCC(C(=O)OCCC)CC1)OO5 (stereo in doubt; 5a)
Plasmodium falciparum [1]
  IC50: 8.8 nM
  IC90: 18 nM
LOX IMVI
  GI50: 1090 nM
  TGI: 2740 nM
LOX IMVI; [10]
  CC50: 6910 nM
IGROV-1
  GI50: 1990 nM
  TGI: 6160 nM
  CC50: > 100000 nM
UO-31
  GI50: 1150 nM
  TGI: 2440 nM
  CC50: 5190 nM
Plasmodium falciparum [2]
  IC50: 6.7 nM
  IC90: 9.4 nM
Plasmodium falciparum [4]
  IC50: 9 nM
  IC90: 17.4 nM
